System: Healthy volunteer
Assay: Phase 1 single-ascending dose study
Settings: for TEAE: Abdominal distension / TEAE: Abdominal pain / TEAE: Application site erosion / TEAE: Arrhythmia / TEAE: Atrioventricular block second degree / TEAE: Cardiac Disorders / TEAE: Decreased appetite / TEAE: Diarrhea / TEAE: Dizziness / TEAE: Gastrointestinal Disorders / TEAE: Headache / TEAE: Immune System Disorders / TEAE: Injury associated with device / TEAE: Injury poisoning and procedural complications / TEAE: Metabolism and nutrition disorders / TEAE: Musculoskeletal and connective tissue disorders / TEAE: Musculoskeletal chest pain / TEAE: Nasopharyngitis / TEAE: Nausea / TEAE: Nervous system disorders / TEAE: Oropharyngeal pain / TEAE: Procedural dizziness / TEAE: Respiratory, thoracic and mediastinal disorders / TEAE: Seasonal allergy / TEAE: Subjects with at least one event / TEAE: Ventricular extrasystoles / TEAE: Vomiting: N = 6, subjects n (%)

Structure (SMILES): CCCCCCCCCCCCCCCC(=O)N[C@@H](CCC(=O)NCCCC[C@H](NC(=O)[C@H](CC(=O)O)NC(=O)[C@H](CO)NC(=O)C(NC(=O)[C@H](Cc1ccccc1)NC(=O)C(NC(=O)CNC(=O)[C@H](CCC(N)=O)NC(=O)[C@H](CO)NC(=O)[C@@H](N)Cc1cnc[nH]1)[C@@H](C)O)[C@@H](C)O)C(=O)N[C@@H](CO)C(=O)N[C@@H](CCC(=O)O)C(=O)N[C@@H](Cc1ccc(O)cc1)C(=O)N[C@@H](CC(C)C)C(=O)N[C@@H](CC(=O)O)C(=O)N[C@@H](CO)C(=O)N[C@@H](CCC(=O)O)C(=O)N[C@@H](CCCNC(=N)N)C(=O)N[C@@H](C)C(=O)N[C@@H](CCCNC(=N)N)C(=O)N[C@@H](CC(=O)O)C(=O)N[C@@H](Cc1ccccc1)C(=O)N[C@H](C(=O)N[C@@H](C)C(=O)N[C@@H](Cc1c[nH]c2ccccc12)C(=O)N[C@@H](CC(C)C)C(=O)N[C@@H](CCC(=O)O)C(=O)N[C@@H](C)C(=O)NCC(=O)NCC(=O)O)C(C)C)C(=O)O (stereo partly shown) [Peptide G933]
- TEAE: Abdominal distension (5 μg): 0
- TEAE: Abdominal pain (5 μg): 0
- TEAE: Application site erosion (5 μg): 0
- TEAE: Arrhythmia (5 μg): 0
- TEAE: Atrioventricular block second degree (5 μg): 0
- TEAE: Cardiac Disorders (5 μg): 0
- TEAE: Decreased appetite (5 μg): 0
- TEAE: Diarrhea (5 μg): 0
- TEAE: Dizziness (5 μg): 0
- TEAE: Gastrointestinal Disorders (5 μg): 0
- TEAE: Headache (5 μg): 1 (16.7%)
- TEAE: Immune System Disorders (5 μg): 0
- TEAE: Injury associated with device (5 μg): 0
- TEAE: Injury poisoning and procedural complications (5 μg): 0
- TEAE: Metabolism and nutrition disorders (5 μg): 0
- TEAE: Musculoskeletal and connective tissue disorders (5 μg): 0
- TEAE: Musculoskeletal chest pain (5 μg): 0
- TEAE: Nasopharyngitis (5 μg): 1 (16.7%)
- TEAE: Nausea (5 μg): 0
- TEAE: Nervous system disorders (5 μg): 1 (16.7%)
- TEAE: Oropharyngeal pain (5 μg): 0
- TEAE: Procedural dizziness (5 μg): 0
- TEAE: Respiratory, thoracic and mediastinal disorders (5 μg): 0
- TEAE: Seasonal allergy (5 μg): 0
- TEAE: Subjects with at least one event (5 μg): 2 (33.3%)
- TEAE: Ventricular extrasystoles (5 μg): 0
- TEAE: Vomiting (5 μg): 0
- TEAE: Abdominal distension (10 μg): 0
- TEAE: Abdominal pain (10 μg): 1 (16.7%)
- TEAE: Application site erosion (10 μg): 0
- TEAE: Arrhythmia (10 μg): 0
- TEAE: Atrioventricular block second degree (10 μg): 1 (16.7%)
- TEAE: Cardiac Disorders (10 μg): 1 (16.7%)
- TEAE: Decreased appetite (10 μg): 0
- TEAE: Diarrhea (10 μg): 1 (16.7%)
- TEAE: Dizziness (10 μg): 1 (16.7%)
- TEAE: Gastrointestinal Disorders (10 μg): 1 (16.7%)
- TEAE: Headache (10 μg): 0
- TEAE: Immune System Disorders (10 μg): 0
- TEAE: Injury associated with device (10 μg): 0
- TEAE: Injury poisoning and procedural complications (10 μg): 0
- TEAE: Metabolism and nutrition disorders (10 μg): 0
- TEAE: Musculoskeletal and connective tissue disorders (10 μg): 0
- TEAE: Musculoskeletal chest pain (10 μg): 0
- TEAE: Nasopharyngitis (10 μg): 0
- TEAE: Nausea (10 μg): 0
- TEAE: Nervous system disorders (10 μg): 1 (16.7%)
- TEAE: Oropharyngeal pain (10 μg): 0
- TEAE: Procedural dizziness (10 μg): 0
- TEAE: Respiratory, thoracic and mediastinal disorders (10 μg): 0
- TEAE: Seasonal allergy (10 μg): 0
- TEAE: Subjects with at least one event (10 μg): 3 (50.0%)
- TEAE: Ventricular extrasystoles (10 μg): 0
- TEAE: Vomiting (10 μg): 0
- TEAE: Abdominal distension (30 μg): 0
- TEAE: Abdominal pain (30 μg): 0
- TEAE: Application site erosion (30 μg): 1 (16.7%)
- TEAE: Arrhythmia (30 μg): 0
- TEAE: Atrioventricular block second degree (30 μg): 0
- TEAE: Cardiac Disorders (30 μg): 0
- TEAE: Decreased appetite (30 μg): 0
- TEAE: Diarrhea (30 μg): 0
- TEAE: Dizziness (30 μg): 1 (16.7%)
- TEAE: Gastrointestinal Disorders (30 μg): 0
- TEAE: Headache (30 μg): 1 (16.7%)
- TEAE: Immune System Disorders (30 μg): 1 (16.7%)
- TEAE: Injury associated with device (30 μg): 0
- TEAE: Injury poisoning and procedural complications (30 μg): 1 (16.7%)
- TEAE: Metabolism and nutrition disorders (30 μg): 0
- TEAE: Musculoskeletal and connective tissue disorders (30 μg): 1 (16.7%)
- TEAE: Musculoskeletal chest pain (30 μg): 1 (16.7%)
- TEAE: Nasopharyngitis (30 μg): 0
- TEAE: Nausea (30 μg): 0
- TEAE: Nervous system disorders (30 μg): 1 (16.7%)
- TEAE: Oropharyngeal pain (30 μg): 0
- TEAE: Procedural dizziness (30 μg): 1 (16.7%)
- TEAE: Respiratory, thoracic and mediastinal disorders (30 μg): 0
- TEAE: Seasonal allergy (30 μg): 1 (16.7%)
- TEAE: Subjects with at least one event (30 μg): 4 (66.7%)
- TEAE: Ventricular extrasystoles (30 μg): 0
- TEAE: Vomiting (30 μg): 0
- vomiting episodes (100 μg dose, 1 subject): 1 episode
- TEAE: Abdominal distension (100 μg): 0
- TEAE: Abdominal pain (100 μg): 0
- TEAE: Application site erosion (100 μg): 0
- TEAE: Arrhythmia (100 μg): 1 (16.7%)
- TEAE: Atrioventricular block second degree (100 μg): 0
- TEAE: Cardiac Disorders (100 μg): 1 (16.7%)
- TEAE: Decreased appetite (100 μg): 0
- TEAE: Diarrhea (100 μg): 0
- TEAE: Dizziness (100 μg): 0
- TEAE: Gastrointestinal Disorders (100 μg): 1 (16.7%)
- TEAE: Headache (100 μg): 1 (16.7%)
- TEAE: Immune System Disorders (100 μg): 0
- TEAE: Injury associated with device (100 μg): 0
- TEAE: Injury poisoning and procedural complications (100 μg): 0
- TEAE: Metabolism and nutrition disorders (100 μg): 0
- TEAE: Musculoskeletal and connective tissue disorders (100 μg): 0
- TEAE: Musculoskeletal chest pain (100 μg): 0
- TEAE: Nasopharyngitis (100 μg): 0
- TEAE: Nausea (100 μg): 1 (16.7%)
- TEAE: Nervous system disorders (100 μg): 2 (33.3%)
- TEAE: Oropharyngeal pain (100 μg): 0
- TEAE: Procedural dizziness (100 μg): 0
- TEAE: Respiratory, thoracic and mediastinal disorders (100 μg): 0
- TEAE: Seasonal allergy (100 μg): 0
- TEAE: Ventricular extrasystoles (100 μg): 0
- TEAE: Vomiting (100 μg): 1 (16.7%)
- vomiting episodes (150 μg dose, 4 subjects): 9 episodes
- TEAE: Abdominal distension (150 μg): 2 (3.3%)
- TEAE: Abdominal pain (150 μg): 0
- TEAE: Application site erosion (150 μg): 0
- TEAE: Arrhythmia (150 μg): 0
- TEAE: Atrioventricular block second degree (150 μg): 0
- TEAE: Cardiac Disorders (150 μg): 0
- TEAE: Decreased appetite (150 μg): 2 (33.3%)
- TEAE: Diarrhea (150 μg): 0
- TEAE: Dizziness (150 μg): 2 (33.3%)

From patent US20220041681A1 (MEDIMMUNE LIMITED, priority 2016, published 2022)
